One assay has as its target wtERBB2 (Homo sapiens (Human), UniProt P04626). The assay can be described thus: HotSpot radiometric kinase activity assay, wtERBB2. It counts as biochemical. The settings on record: 30 nM wtERBB2, 10 μM 33P-ATP, 20 min preincubation, 2 hours, read-out: HER2 WT IC50. As for the experimental part:
The purpose of the wtERBB2, ERBB2-A775_G776insYVMA (ERBB2YVMA), wtEGFR biochemical assay was to evaluate the inhibition (% inhibition and IC50 values) of the small molecule inhibitors by using the “HotSpot” radiometric kinase activity assay. HotSpot assays monitor the […] of kinase substrate by the radioactive gamma phosphate of adenosine triphosphate (33P-ATP) during biochemical reactions. HotSpot assays was performed in steps upon completion of the kinase reaction: deposition of a reaction mixture aliquot onto P81 ion exchange paper, extensive washing of the aforementioned P81 paper using phosphoric acid to remove unbound radiolabeled 33P-ATP from the P81 paper, and finally visualization and quantification of the dried P81 paper utilizing a phosphoimager. […] Typical reaction solutions (10 μL final reaction volume) contained the following buffer conditions: 20 mM Hepes (pH 7.5), 10 mM MgCl2, 1 mM EGTA, 0.01% Brij35, 0.02 mg/mL BSA, 0.1 mM Na3VO4, 2 mM DTT, 1% DMSO. The assay was primed by preparing a fresh 0.2 mg/mL solution of pEY (Sigma Cat: P7244) substrate in the reaction buffer and supplementing that solution with […] of MnCl2 as substrate cofactor (Sigma Cat: M9522). The kinase of interest was then added to the solution at the appropriate concentration (30 nM wtERBB2 from, or 20 nM ERBB2YVMA, or 4 nM wtEGFR) and gently mixed prior to delivery of compound in 100% DMSO by acoustic dispensing (Beckman Echo550). Compound, Kinase, and substrate were allowed to incubate for 20 min at room temperature prior to the initiation of the reaction by addition of 33P-ATP (PerkinElmer Cat: NEG602, final conc 10 μM). […] IC50 determinations were made from a plot of kinase activity as a function of inhibitor concentration fit to the 4-parameter IC50 equation with the enzyme concentration held constant using GraphPad Prism (San Diego).

The next assay has as its system BaF3_HER2YVMA cells. The assay can be described thus: Cell growth inhibition assay, BaF3_HER2YVMA. It counts as cell-based. The conditions noted are these: 72 h, BaF3_HER2YVMA cells, 3 days treatment, CellTiterGlo 2.0; read-out: HER2-YVMA IC50 (nM), cell growth inhibition. On the technique in general: In ATP-based viability assays light output follows the ATP content of the culture.

The subject of the next assay is BaF3_HER2WT cells. Briefly: Cell growth inhibition assay, BaF3_HER2WT. It counts as cell-based. The conditions noted are these: 72 h, 3 days treatment, CellTiterGlo 2.0, read-out: HER2 WT IC50 (nM), cell growth inhibition.
A further assay concerns BaF3_EGFRWT cells. Briefly: Cell growth inhibition assay, BaF3_EGFRWT. It counts as cell-based. The conditions noted are these: 72 h, 80 ng/mL recombinant human EGF, 3 days treatment, CellTiterGlo 2.0, read-out: EGFR WT IC50 (nM), cell growth inhibition.

Molecules are shown by their SMILES. Some results are limits rather than exact numbers.

Sequence of wtERBB2 (P04626 23-1255): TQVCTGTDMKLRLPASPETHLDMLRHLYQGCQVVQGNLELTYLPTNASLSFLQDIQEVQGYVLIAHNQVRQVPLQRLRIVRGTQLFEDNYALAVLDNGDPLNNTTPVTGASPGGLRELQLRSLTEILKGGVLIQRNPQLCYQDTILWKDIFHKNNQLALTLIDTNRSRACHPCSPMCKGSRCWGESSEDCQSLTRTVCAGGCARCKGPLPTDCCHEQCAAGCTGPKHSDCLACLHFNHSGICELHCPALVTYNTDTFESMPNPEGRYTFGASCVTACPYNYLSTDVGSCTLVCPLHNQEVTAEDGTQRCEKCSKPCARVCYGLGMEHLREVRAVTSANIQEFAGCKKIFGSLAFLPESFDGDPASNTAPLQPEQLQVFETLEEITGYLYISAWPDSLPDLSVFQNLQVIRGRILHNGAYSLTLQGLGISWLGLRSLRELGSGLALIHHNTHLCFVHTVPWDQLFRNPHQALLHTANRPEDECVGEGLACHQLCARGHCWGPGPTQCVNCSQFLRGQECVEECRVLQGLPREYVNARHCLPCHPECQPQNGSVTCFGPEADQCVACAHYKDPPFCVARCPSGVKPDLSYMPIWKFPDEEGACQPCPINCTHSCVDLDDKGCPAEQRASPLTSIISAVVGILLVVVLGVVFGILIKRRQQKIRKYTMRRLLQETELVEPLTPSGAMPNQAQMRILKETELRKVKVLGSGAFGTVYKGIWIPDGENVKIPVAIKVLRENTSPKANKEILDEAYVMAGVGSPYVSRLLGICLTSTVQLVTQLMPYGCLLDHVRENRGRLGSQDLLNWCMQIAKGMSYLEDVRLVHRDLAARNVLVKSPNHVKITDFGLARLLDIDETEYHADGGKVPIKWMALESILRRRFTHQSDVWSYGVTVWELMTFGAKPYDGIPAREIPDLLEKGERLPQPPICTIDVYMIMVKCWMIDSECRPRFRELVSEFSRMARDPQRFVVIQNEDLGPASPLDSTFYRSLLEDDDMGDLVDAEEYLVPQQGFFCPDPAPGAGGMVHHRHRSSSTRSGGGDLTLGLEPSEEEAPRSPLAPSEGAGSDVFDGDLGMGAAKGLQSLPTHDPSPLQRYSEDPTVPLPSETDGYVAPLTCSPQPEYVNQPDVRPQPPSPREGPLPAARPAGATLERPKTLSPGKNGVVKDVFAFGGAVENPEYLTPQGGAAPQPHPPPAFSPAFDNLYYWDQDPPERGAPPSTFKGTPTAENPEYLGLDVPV

What is called IC50 is the concentration that gives 50% inhibition. For `C=CC(=O)N1CCC(c2ccn3ncnc(Nc4ccc(Oc5ccn6ncnc6c5)c(C)c4)c23)C1` (centres unmarked) [Example 11, 1-(3-(4-((4-([1,2,4]triazolo[1,5-a]pyridin-7-yloxy)-3-methylphenyl)amino)pyrrolo[2,1-f][1,2,4]triazin-5-yl)pyrrolidin-1-yl)prop-2-en-1-one], the IC50 on wtERBB2 is below 200 nM; in the assay on BaF3_HER2YVMA cells, below 200 nM; in the assay on BaF3_HER2WT cells, below 200 nM; with BaF3_EGFRWT cells, 1500 to 5000 nM.
As to `C=C(F)C(=O)NC1CN(c2ccn3ncnc(Nc4ccc(Oc5ccn6ncnc6c5)c(C)c4)c23)C1` [Example 18, N-(1-(4-((4-([1,2,4]triazolo[1,5-a]pyridin-7-yloxy)-3-methylphenyl)amino)pyrrolo[2,1-f][1,2,4]triazin-5-yl)azetidin-3-yl)-2-fluoroacrylamide], the concentration for half-maximal inhibition (IC50) at wtERBB2 was below 200 nM; in the assay with BaF3_HER2YVMA cells, 500 to 1500 nM; with BaF3_HER2WT cells it was 200 to 500 nM; in the assay with BaF3_EGFRWT cells, 1500 to 5000 nM.
In the same order, the values of `Cc1cc(Nc2ncnn3ccc(C4CN(C(=O)/C=C/CN5CCC5)C4)c23)ccc1Oc1ccn2ncnc2c1` [Example 102, (E)-1-(3-(4-((4-([1,2,4]triazolo[1,5-a]pyridin-7-yloxy)-3-methylphenyl)amino)pyrrolo[2,1-f][1,2,4]triazin-5-yl)azetidin-1-yl)-4-(azetidin-1-yl)but-2-en-1-one] are below 200 nM, 1500 to 5000 nM, 500 to 1500 nM and 1500 to 5000 nM.
`Cc1cc(Nc2ncnn3ccc(C4CCCN(C(=O)/C=C/CN(C)C)CC4)c23)ccc1Oc1ccn2ncnc2c1` (centres unmarked) [Example 93, (E)-1-(4-(4-((4-([1,2,4]triazolo[1,5-a]pyridin-7-yloxy)-3-methylphenyl)amino)pyrrolo[2,1-f][1,2,4]triazin-5-yl)azepan-1-yl)-4-(dimethylamino)but-2-en-1-one]: the IC50 at wtERBB2 was below 200 nM; in the assay on BaF3_HER2YVMA cells, below 200 nM; in the assay on BaF3_HER2WT cells it was below 200 nM; in the assay with BaF3_EGFRWT cells, 1500 to 5000 nM.
Regarding `Cc1cc(Nc2ncnn3ccc(C4CN(C(=O)/C=C/CN)C4)c23)ccc1Oc1ccn2ncnc2c1` [Example 87, (E)-1-(3-(4-((4-([1,2,4]triazolo[1,5-a]pyridin-7-yloxy)-3-methylphenyl)amino)pyrrolo[2,1-f][1,2,4]triazin-5-yl)azetidin-1-yl)-4-aminobut-2-en-1-one], the IC50 on wtERBB2 is below 200 nM; in the assay on BaF3_HER2YVMA cells, 1500 to 5000 nM; with BaF3_HER2WT cells, 1500 to 5000 nM; in the assay on BaF3_EGFRWT cells, 1500 to 5000 nM.
On to `Cc1cc(Nc2ncnn3ccc(C4CCN(C(=O)CCCN(C)C)CC4)c23)ccc1Oc1ccn2ncnc2c1` [Example 23, 1-(4-(4-((4-([1,2,4]triazolo[1,5-a]pyridin-7-yloxy)-3-methylphenyl)amino)pyrrolo[2,1-f][1,2,4]triazin-5-yl)piperidin-1-yl)-4-(dimethylamino)butan-1-one], for which the IC50 at wtERBB2 was below 200 nM; with BaF3_HER2YVMA cells, 1500 to 5000 nM; with BaF3_HER2WT cells it was 500 to 1500 nM; with BaF3_EGFRWT cells it was 1500 to 5000 nM.
Turning to `Cc1cc(Nc2ncnn3ccc([C@@H]4CCCN(C(=O)/C=C/CN(C)C)C4)c23)ccc1Oc1ccn2ncnc2c1` (single isomer, unassigned) [Example 107], at wtERBB2, the IC50 was below 200 nM.
As for `Cc1cc(Nc2ncnn3ccc(C4CCCN(C(=O)/C=C/CN(C)C)C4)c23)ccc1Oc1ccn2ncnc2c1` (centres unmarked) [Example 96, (E)-1-(3-(4-((4-([1,2,4]triazolo[1,5-a]pyridin-7-yloxy)-3-methylphenyl)amino)-pyrrolo-[2,1-f][1,2,4]-triazin-5-yl)piperidin-1-yl)-4-(dimethylamino)but-2-en-1-one], the half-inhibitory concentration (IC50) at wtERBB2 is below 200 nM; with BaF3_HER2YVMA cells, 500 to 1500 nM; in the assay on BaF3_HER2WT cells, below 200 nM; in the assay on BaF3_EGFRWT cells, 1500 to 5000 nM.
Consider `C=CC(=O)N1CC2(C1)CN(c1ccn3ncnc(Nc4ccc(Oc5ccn6ncnc6c5)c(C)c4)c13)C2` [Example 16, 1-(6-(4-((4-([1,2,4]triazolo[1,5-a]pyridin-7-yloxy)-3-methylphenyl)amino)pyrrolo[2,1-f][1,2,4]triazin-5-yl)-2,6-diazaspiro[3.3]heptan-2-yl)prop-2-en-1-one], for which the IC50 at wtERBB2 was below 200 nM; in the assay on BaF3_HER2YVMA cells, 500 to 1500 nM; with BaF3_HER2WT cells, 200 to 500 nM; in the assay with BaF3_EGFRWT cells, 1500 to 5000 nM.
For the compound `C=CC(=O)N1CCC2(C1)CN(c1ccn3ncnc(Nc4ccc(Oc5ccn6ncnc6c5)c(C)c4)c13)C2` [Example 155, 1-(2-{4-[(3-methyl-4-{[1,2,4]triazolo[1,5-a]pyridin-7-yloxy}phenyl)amino]pyrrolo[2,1-f][1,2,4]triazin-5-yl}-2,6-diazaspiro[3.4]octan-6-yl)prop-2-en-1-one], the IC50 at wtERBB2 was below 200 nM; in the assay on BaF3_HER2YVMA cells, 200 to 500 nM; in the assay with BaF3_HER2WT cells, below 200 nM; in the assay with BaF3_EGFRWT cells, 1500 to 5000 nM.
With `Cc1cc(Nc2ncnn3ccc(N4CC5(CCN(C(=O)/C=C/CN(C)C)C5)C4)c23)ccc1Oc1ccn2ncnc2c1` [Example 156, (2E)-4-(dimethylamino)-1-(2-{4-[(3-methyl-4-{[1,2,4]triazolo[1,5-a]pyridin-7-yloxy}phenyl)amino]pyrrolo[2,1-f][1,2,4]triazin-5-yl}-2,6-diazaspiro[3.4]octan-6-yl)but-2-en-1-one], the IC50 was below 200 nM at wtERBB2, 1500 to 5000 nM in the assay on BaF3_HER2YVMA cells, 200 to 500 nM with BaF3_HER2WT cells and 1500 to 5000 nM with BaF3_EGFRWT cells.
With `Cc1cc(Nc2ncnn3ccc([C@H]4CCCN(C(=O)/C=C/CN(C)C)C4)c23)ccc1Oc1ccn2ncnc2c1` [Example 108, (R,E)-1-(3-(4-((4-([1,2,4]triazolo[1,5-a]pyridin-7-yloxy)-3-methylphenyl)amino)-pyrrolo[2,1-f][1,2,4]-triazin-5-yl)piperidin-1-yl)-4-(dimethylamino)but-2-en-1-one], on wtERBB2, the IC50 was below 200 nM.
For `Cc1cc(Nc2ncnn3ccc([C@H]4CCN(C(=O)/C=C/CN(C)C)C4)c23)ccc1Oc1ccn2ncnc2c1` [Example 100, (R,E)-1-(3-(4-((4-([1,2,4]triazolo[1,5-a]pyridin-7-yloxy)-3-methylphenyl)amino)-pyrrolo[2,1-f]1,2,4-triazin-5-yl)pyrrolidin-1-yl)-4-(dimethylamino)but-2-en-1-one], the IC50 at wtERBB2 was below 200 nM.
Still for that read-out and setting: to `Cc1cc(Nc2ncnn3ccc([C@H]4CCCN(C(=O)/C=C/CN(C)C)CC4)c23)ccc1Oc1ccn2ncnc2c1` [Example 110, (S,E)-1-(4-(4-((4-([1,2,4]triazolo[1,5-a]pyridin-7-yloxy)-3-methylphenyl)amino)pyrrolo[2,1-f][1,2,4]triazin-5-yl)azepan-1-yl)-4-(dimethylamino)but-2-en-1-one] belongs below 200 nM.
Take `Cc1cc(Nc2ncnn3ccc(C4=CCN(C(=O)/C=C/CN(C)C)C4)c23)ccc1Oc1ccn2ncnc2c1` [Example 29, (E)-1-(3-(4-((4-([1,2,4]triazolo[1,5-a]pyridin-7-yloxy)-3-methylphenyl)amino)pyrrolo[2,1-f][1,2,4]triazin-5-yl)-2,5-dihydro-1H-pyrrol-1-yl)-4-(dimethylamino)but-2-en-1-one acetate]: the values for the IC50 with BaF3_HER2YVMA cells, in the assay on BaF3_HER2WT cells and in the assay on BaF3_EGFRWT cells were 1500 to 5000 nM, below 200 nM and 1500 to 5000 nM, respectively.
On to `C=CC(=O)N1CC2(C1)CN(c1ccn3ncnc(Nc4cnc(Oc5ccn6ncnc6c5)c(Cl)c4)c13)C2` [Example 15, 1-(6-(4-((6-([1,2,4]triazolo[1,5-a]pyridin-7-yloxy)-5-chloropyridin-3-yl)amino)pyrrolo[2,1-f][1,2,4]triazin-5-yl)-2,6-diazaspiro[3.3]heptan-2-yl)prop-2-en-1-one], for which the IC50 was above 5000 nM in the assay on BaF3_HER2YVMA cells, 1500 to 5000 nM with BaF3_HER2WT cells and 1500 to 5000 nM with BaF3_EGFRWT cells.
`Cc1cc(Nc2c(C#N)cnn3ccc(C4CN(C(=O)/C=C/CN(C)C)C4)c23)ccc1Oc1ccn2ncnc2c1` [Example 86, (E)-4-((4-([1,2,4]triazolo[1,5-a]pyridin-7-yloxy)-3-methylphenyl)amino)-5-(1-(4-(dimethylamino)-but-2-enoyl)azetidin-3-yl)pyrrolo[1,2-b]pyridazine-3-carbonitrile]: the IC50 is above 5000 nM with BaF3_HER2YVMA cells, 1500 to 5000 nM with BaF3_HER2WT cells and 1500 to 5000 nM with BaF3_EGFRWT cells.

These data come from patent US20250276983A1, “COMPOUNDS AND METHODS FOR MODULATING HER2” (IAMBIC THERAPEUTICS, INC., priority 2022, published 2025).
